# According to patent US20120035224A1, “Betulin derived compounds as anti-feedants for plant pests” (priority 2006, published 2012):
# Marks after values point to notes of the source that are not given here.
# Tests used:
# Format in all cases: in vivo
# [1] = tested on: cabbage white, Mamestra brassicae larvae; experiment: Antifeedant activity on cabbage leaf discs, no-choice test; settings: for Leaf mass eaten by the larvae vs. control, Time/0 h: 100 μg/cm^2, 0 h after treatment; for Leaf mass eaten by the larvae vs. control, Time/21 h: 100 μg/cm^2, 21 h after treatment; for Leaf mass eaten by the larvae vs. control, Time/43 h: 100 μg/cm^2, 43 h after treatment; for Leaf mass eaten by the larvae vs. control, Time/73 h: 100 μg/cm^2, 73 h after treatment; for antifeedant activity on the larvae: FIG. 2, no-choice test
# Procedure: Antifeedant activity for the […], Mamestra brassicae larvae was tested with six compounds derived from betulin. Discs cut from cabbage leaves, having a diameter of 5 cm, were placed on petridishes and treated with the test agents in an amount of 100 μg/cm^2. One small larva was introduced on each plate. Each agent was tested in 10 parallel studies. Cabbage leaf mass remaining on the dish was weighed after 0, 21, 43 and 73 hours after treatment (hat), and leaf mass eaten by the larva was calculated as percentage based on the control.
# [2] = tested on: cabbage white, Mamestra brassicae larvae; experiment: as above; settings: FIG. 3, small larvae (12 to 19 mg), weight after 7 hours vs initial weight
# [3] = tested on: Deroceras agreste (field snails) and Deroceras reticulatum (false field snails); experiment: Effect on feeding behaviour of snails, half-treated leaf discs; settings: for ranking of snail test results: 100 μg/cm^2; for Percentage of the leaf half treated with the test substance vs. total mass eaten: treated half of leaf disc; for Percentage of the leaf half treated with the test substance vs. total mass eaten / Percentage of the control vs. total mass eaten: 36 hours, 100 μg/cm^2 in acetone; for Percentage of the control vs. total mass eaten: untreated half of leaf disc
# Procedure: Deroceras agreste (field snails) and Deroceras reticulatum (false field snails) snails with lengts of about 2 cm, collected from nature, were used in this antifeedant test. Cabbage and lettuce leaves cut into discs with diameters of 4 cm serving as feed plants were placed on petridishes. Half on each leaf disc was treated with the test substance, the other haft serving as the control. One snail was placed on each plate, and only tests where the snail ate the leaf were assayed. The results were recorded at 36 hours after test initiation. Acetone was used as control, while betulin, betulinic acid, betulonic acid and betulin 28-carboxymethoxy mentholester dissolved in aceton served as test substances. The leaves studied were treated with test substances used in amounts of 100 μg/cm^2, The results from this test are presented in the following table 5.
# [4] = tested on: rapeseed beetles of the genus Phyllotreta spp.; experiment: Antifeedant activity for rapeseed beetles on rapeseed seedlings (palatability test); settings: for % Surface area of the leaves eaten: 100 μg/cm^2 in rapeseed oil on rapeseed seedlings, after one week, rapeseed oil=100%; for prevention of beetle feeding: 100 μg/cm^2, FIG. 1 and table 3
# Procedure: Antifeedant activity for rapeseed beetles of the genus Phyllotreta spp. was tested using betulin 3,28-O-isostearylic diester (prepared as described in example 10), 3,28-diacetoxy betulin (prepared in example 15a), and betulin. Test compounds dissolved in 2 ml of rapeseed oil were sprayed on rapeseed seedlings at the cotyledon stage in an amount of 100 μg/cm^2. The plants thus treated were placed in an insect cage, followed by the introduction of the beetles after 24 hours. In the tests, 20 beetles were used per cage, each cage comprising 3 petridishes with seedlings, one control dish and two different test dishes, the number of the cages (=parallel tests) being 5. Pure rapeseed oil was used as the control. The beetles were allowed free access to all plants, and after one week, the test was stopped, the plants were examined, and feeding damages caused by the beetles were evaluated.
# Number of the damaged leaves and the degree of damage were evaluated (% leaf surface area fed, palatability assessment).
# Betulin 20,29-epoxy-3β,28-diacetate was used as the control compound, prepared as disclosed in J. Arg. Food Chem. 1995, 43, 2513-2516.
# [5] = tested on: lily beetles (Lilioceris lilii) larvae; experiment: No-choice feeding test with larvae on brown lily leaves; settings: for decrease of feeding of larvae / Percentage of the eaten relative mass of the leaf: larvae; for Percentage of the eaten relative mass of the leaf: no-choice test, approx. 100 μg/cm^2, ethanol control 65.3
# Procedure: (§1) Antifeedant activity of betulin and betulonic acid was tested for lily beetles (Lilioceris lilii) with adults and larvae using leaves of brownlily plants. The test substances were dissolved in ethanol, and the leaves were treated to achieve a concentration of approx. 100 μg/cm^2 of the test substance. The experiment was carried out with adults as a selection test on a petridisc containing two leaves cut from a brown lily plant. One was treated with the test substance and the other treated with ethanol only. Two adult lilybeetles (Lilioceris lilii) were placed on the disc (male and female). The leaf mass eaten by the animals was counted daily during four days by weighing the leaves; simultaneously the number eggs laid by the adults were counted. 10 parallel tests were performed. The test with larvae was a no-choise-test, where either a treated or untreated leaf of brownlily and one beetle larvae was placed on each disc. 7 parallel tests were performed. Results from the palatability test and the prevention of egglaying test with adults and larvae of lily beetles (Lilioceris lilii) are shown in the following table 7. […] Betulonic acid decreased very efficiently egglaying of adults on the leaves (more than 90%). Betulonic acid decreased feeding of larvae efficiently (92%), with betulin this was not observed. In a no-choise situation the larvae died on the betulonic acid treated leaves, in other test treatments they grew normally.
# [6] = tested on: strawberry beetles (Galerucella tenella); experiment: Palatability and egg laying selection test on strawberry leaves
# Procedure: Antifeedant activity of betulin and betulonic acid was tested for strawberry beetles (Galerucella tenella) with adults and larvae using leaves of the plants. The test substances were dissolved in ethanol, and the leaves were treated to achieve a concentration of approx. 100 μg/cm^2 of the test substance. The experiment was carried out as a selection test on a petridisc containing a strawberry leaf having one half treated with the test substance and the other half treated with ethanol only. Two adult strawberry beetles (Galerucella tenella) were placed on the disc (male and female) or two larvae. The number of cavities eaten by the animals were counted daily during four days; simultaneously the number eggs laid by the adults were counted. Both the adults and the larvae had 10 tests. Results from the palatability test and the prevention of egg laying test with strawberry beetles (Galerucella tenella) are shown in the following table 6.
# [7] = tested on: lily beetles (Lilioceris lilii) adults; experiment: Palatability and egg laying selection test with adults on brown lily leaves; settings: for Percentage of the eaten relative mass of the leaf: selection test, approx. 100 μg/cm^2, four days, ethanol control 76.4
# Procedure: as §1
# [8] = larvae, approx. 100 μg/cm^2, four days, ethanol = 100
# [9] = adults, approx. 100 μg/cm^2, four days, ethanol = 100
Compound,"Leaf mass eaten by the larvae vs. control, Time/0 h [1] [%]","Leaf mass eaten by the larvae vs. control, Time/21 h [1]","Leaf mass eaten by the larvae vs. control, Time/43 h [1]","Leaf mass eaten by the larvae vs. control, Time/73 h [1] [%]",ranking of snail test results [3],Percentage of the leaf half treated with the test substance vs. total mass eaten [3] [%],Percentage of the control vs. total mass eaten [3] [%],% Surface area of the leaves eaten [4] [%],other results
"3,28-C18 alkylene succinic diester of betulin",100,93%,90%,77,–,–,–,–,–
28-C18 alkylene succinic ester of betulin,100,103* %,82%,71,–,–,–,–,antifeedant activity on the larvae [1]: clearly had antifeedant activities
"C=C(C)[C@@H]1CC[C@]2(C(=O)O)CC[C@]3(C)C(CCC4[C@@]5(C)CC[C@H](O)C(C)(C)C5CC[C@]43C)C12 (stereo partly drawn) [Betulinic acid, betulinic acid]",100,46%,67%,80,Best results,37.6,62.4,–,weight development of the larvae [2]: lower than the initial weight; antifeedant activity on the larvae [1]: clearly had antifeedant activities
"C=C(C)[C@@H]1CC[C@]2(COC(C)=O)CC[C@]3(C)C(CCC4[C@@]5(C)CC[C@H](OC(C)=O)C(C)(C)C5CC[C@]43C)C12 (stereo partly drawn) [3,28-diacetoxy betulin]",–,–,–,–,–,–,–,96,–
"C=C(C)[C@@H]1CC[C@]2(CO)CC[C@]3(C)[C@H](CC[C@@H]4[C@@]5(C)CC[C@H](O)C(C)(C)[C@@H]5CC[C@]43C)[C@@H]12 [Betulin, lup-20(29)-ene-3β,28-diol]",100,101* %,193* %,88,–,22.5,77.5,58,"decrease of feeding of larvae [5]: not observed; Percentage of the eaten relative mass of the leaf [5]: 64.2%; prevention of beetle feeding [4]: efficiently prevented beetle feeding; prevention of feeding ([6]; larvae): 78%; Percentage of the relative number of eaten cavities [6, 8]: 21.9%; prevention (decrease) of feeding [7]: approx. 47%; Percentage of the eaten relative mass of the leaf [7]: 40.7%"
"CC(=O)OCC12CCC(C3(C)CO3)C1C1CCC3C4(C)CCC(OC(C)=O)C(C)(C)C4CCC3(C)C1(C)CC2 (stereo not drawn) [Betulin 20,29-epoxy-3β,28-diacetate, reference compound]",–,–,–,–,–,–,–,50,–
"C=C(C)[C@@H]1CC[C@]2(COC(=O)CO[C@H]3C[C@@H](C)CC[C@@H]3C(C)C)CC[C@]3(C)C(CCC4[C@@]5(C)CC[C@H](O)C(C)(C)C5CC[C@]43C)C12 (stereo partly drawn) [betulin 28-carboxymethoxy menthol ester, 28-carboxymethoxy mentholester of betulin]",100,126* %,146* %,94,Best results,36.6,63.4,–,–
"C=C(C)[C@@H]1CC[C@]2(C(=O)O)CC[C@]3(C)C(CCC4[C@@]5(C)CCC(=O)C(C)(C)C5CC[C@]43C)C12 (stereo partly drawn) [Betulonic acid, betulonic acid]",100,94%,95%,86,Best results,25.8,74.2,–,"decrease of feeding of larvae [5]: 92%; Percentage of the eaten relative mass of the leaf [5]: 5.2%; fate of larvae on treated leaves ([5]; no-choice situation): died; prevention of feeding ([6]; adults): approx. 41%; prevention of laying of eggs on the leaves ([6]; adults): more than 90%; Percentage of the number or eggs laid by the females on the leaves [6, 9]: 8.3%; Percentage of the relative number of eaten cavities [6, 9]: 58.7%; prevention of feeding ([6]; larvae): 82%; Percentage of the relative number of eaten cavities [6, 8]: 17.8%; decrease of egglaying of adults on the leaves [7]: more than 90%; prevention (decrease) of feeding [7]: approx. 78%; Percentage of the number or eggs laid by the beetles ([7]; approx. 100 μg/cm^2, ethanol control = 100): 8.7%; Percentage of the eaten relative mass of the leaf [7]: 17.0%"
"3,28-O-isostearylic acid diester of betulin [Betulin 3,28-O-isostearylic acid diester]",–,–,–,–,–,–,–,64,prevention of beetle feeding [4]: efficiently prevented beetle feeding
